Here are results for 56 molecules from ChEMBL document CHEMBL1133805, “Discovery and initial structure-activity relationships of trisubstituted ureas as thrombin receptor (PAR-1) antagonists” (Bioorg Med Chem Lett, 2001).

Where a SMILES comes first, the peptide text is derived from it. [ ]: non-standard residue; d: D form. The star is where a group is joined. Phe(4-guanidino) = N=C(N)Nc1ccc(C[C@H](N)C(=O)O)cc1; Phe(4-F) = N[C@@H](Cc1ccc(F)cc1)C(=O)O; Orn = NCCC[C@H](N)C(=O)O; X1 = O=C(/C=C/c1ccccc1)*; Propionyl = CCC(=O)*

For experiment [1], the species on record is Homo sapiens. Kind of experiment: Inhibitory concentration against TRAP-stimulated secretion of 3H serotonin from human platelets. The format is functional.
Experiment [2] deals with T1, Proteinase-activated receptor 1 (Homo sapiens, UniProt P25116).
T1 sequence (P25116 whole entry): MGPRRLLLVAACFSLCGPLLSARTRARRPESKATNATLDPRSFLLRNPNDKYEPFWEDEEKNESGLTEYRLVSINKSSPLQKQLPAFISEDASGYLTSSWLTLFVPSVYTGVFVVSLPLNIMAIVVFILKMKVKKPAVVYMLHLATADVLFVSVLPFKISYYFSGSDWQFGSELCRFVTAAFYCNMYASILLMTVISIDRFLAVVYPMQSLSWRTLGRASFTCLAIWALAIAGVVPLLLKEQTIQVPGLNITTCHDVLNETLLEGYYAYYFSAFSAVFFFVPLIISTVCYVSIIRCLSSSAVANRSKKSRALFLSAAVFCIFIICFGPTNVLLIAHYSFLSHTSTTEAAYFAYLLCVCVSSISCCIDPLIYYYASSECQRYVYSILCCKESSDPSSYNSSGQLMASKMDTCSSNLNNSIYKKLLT
Put plainly: Binding affinity against platelet thrombin receptor.

A short description of experiment [3]: Inhibitory activity against ADP or collagen induced platelet activation. It is filed as functional.
The nature of experiment [4]: Inhibitory activity against thrombin's catalytic activity was determined. It is filed as functional.

In experiment [1], `CC(C)N(C[C@@H](O)c1ccc(Cl)c(Cl)c1)C(=O)Nc1ccc(CCNC(=O)c2ccc(S(N)(=O)=O)cc2)cc1` displayed a half-inhibitory concentration (IC50) of 700 nM. The same measure, in the same setting: for `CC(C)(C)C(=O)NCc1ccc(NC(=O)N(C[C@@H](O)c2ccc(Cl)c(Cl)c2)C2CCCC2)cc1` the value was greater than 10000 nM; for `CC(C)(C)C(=O)NCc1ccc(NC(=O)N(CC(O)c2ccc(Cl)c(Cl)c2)C2CCC2)cc1` (stereo not given), 230 nM. For the molecule `CC(C)N(C[C@@H](O)c1ccc(Cl)c(Cl)c1)C(=O)Nc1ccc(CNC(=O)C(C)(C)C)cc1`, the IC50 in experiment [1] and in experiment [2] was 700 nM in each case. In experiment [1], `CCC(=O)NCCC[C@H](NC(=O)[C@H](CCCN=C(N)N)NC(=O)[C@H](CC(C)C)NC(=O)[C@H](Cc1ccc(NC(=N)N)cc1)NC(=O)[C@H](Cc1ccc(F)cc1)NC(=O)/C=C/c1ccccc1)C(N)=O` (X1-[Phe(4-F)][Phe(4-guanidino)]LR[Orn](Propionyl)-NH2) gave an IC50 of 120 nM.

The molecule `CC(C)(C)C(=O)NCc1ccc(NC(=O)N2CSC[C@@H]2[C@@H](O)c2ccc(Cl)c(Cl)c2)cc1` displayed an IC50 in experiment [1] of 2500 nM.

On to `CC(C)(C)C(=O)NCc1ccc(NC(=O)N2CCC[C@H]2[C@H](O)c2ccc(Cl)c(Cl)c2)cc1`, for which the IC50 in experiment [1] is greater than 10000 nM. Same read-out and setting: with `CC(C)N(C[C@@H](O)c1ccc(Cl)c(Cl)c1)C(=O)Nc1ccc(CCNC(=O)c2ccc(F)cc2F)cc1` the figure was greater than 10000 nM. For the molecule `CC(C)N(C[C@@H](O)c1ccc(Cl)c(Cl)c1)C(=O)Nc1ccc(CNC(=O)c2ccc(S(N)(=O)=O)cc2)cc1`, the IC50 in experiment [1] is 850 nM; in experiment [2], 1200 nM. Regarding `O=C1N(C[C@@H](O)c2ccc(Cl)c(Cl)c2)CCN1c1ccccc1`, the IC50 in experiment [1] is greater than 100000 nM. Same read-out and setting: for `CC(C)N1CC(c2ccc(Cl)c(Cl)c2)CN(c2ccc(CNC(=O)C(C)(C)C)cc2)C1=O` (stereo not given) the value was greater than 10000 nM; for `Cc1ccc(C(O)CN(C(=O)Nc2ccc(CNC(=O)C(C)(C)C)cc2)C2CCC2)cc1C` (stereo not given), greater than 10000 nM; for `CC(C)(C)C(=O)NCc1ccc(NC(=O)N2CCC[C@@H]2[C@H](O)c2ccc(Cl)c(Cl)c2)cc1`, greater than 10000 nM. Turning to `CC(C)CN(C[C@@H](O)c1ccc(Cl)c(Cl)c1)C(=O)Nc1ccc(CNC(=O)C(C)(C)C)cc1`, the IC50 in experiment [1] was greater than 10000 nM. Same read-out and setting: with `CC(C)N(C[C@@H](O)c1ccc(Cl)c(Cl)c1)C(=O)Nc1ccc(CNC(=O)c2cccc3[nH]cnc23)cc1` the figure was 450 nM; with `CC(C)N(C[C@@H](O)c1ccc(Cl)c(Cl)c1)C(=O)Nc1ccc(CNC(=O)C(C)(C)N)cc1`, 1000 nM. The same measure, in the same setting: with `CC(C)(C)C(=O)NCc1ccc(NC(=O)N(C[C@@H](O)c2ccc(Cl)c(Cl)c2)C(C)(C)C)cc1` the figure was 1700 nM; with `CC(C)(C)C(=O)NCc1ccc(NC(=O)N(CC(O)c2ccc(C#N)cc2)C2CCC2)cc1` (stereo not given), 6000 nM; with `CC(C)(C)C(=O)NCc1ccc(NC(=O)N2CCCC(O)(c3ccc(Cl)c(Cl)c3)C2)cc1` (stereo not given), 500 nM. The same measure, in the same setting: for `CC(C)(C)C(=O)NCc1ccc(NC(=O)N2CCOC(c3ccc(Cl)c(Cl)c3)C2)cc1` (stereo not given) the value was greater than 40000 nM; for `CC(C)N(C[C@@H](O)c1ccc(Cl)c(Cl)c1)C(=O)Nc1ccc(CNC(=O)Nc2ccc(CNC(N)=O)cc2)cc1`, 600 nM.

Molecule `CCCCN(C[C@@H](O)c1ccc(Cl)c(Cl)c1)C(=O)Nc1ccc(CNC(=O)C(C)(C)C)cc1` returned an IC50 in experiment [1] greater than 10000 nM.

The molecule `CC(C)(C)C(=O)NCc1ccc(NC(=O)N2CCCC[C@H]2[C@H](O)c2ccc(Cl)c(Cl)c2)cc1` showed an IC50 in experiment [1] greater than 10000 nM. As to `CC(C)N(C[C@@H](O)c1ccc(Cl)c(Cl)c1)C(=O)Nc1ccc(CCNC(=O)C(C)(C)C)cc1`, in experiment [1], the IC50 was greater than 10000 nM. With `CN(C[C@@H](O)c1ccc(Cl)c(Cl)c1)C(=O)Nc1ccc(CNC(=O)C(C)(C)C)cc1`, the IC50 in experiment [1] is 40000 nM; in experiment [2], 6600 nM. `CC(C)(C)C(=O)NCc1ccc(NC(=O)N(CC(O)c2ccc(F)c(F)c2)C2CCC2)cc1` (stereo not given): 10000 nM corresponded to half-maximal inhibition in experiment [1] (IC50). In turn, `CC[C@H]1CC[C@@H]([C@@H](O)c2ccc(Cl)c(Cl)c2)N1C(=O)Nc1ccc(CNC(=O)C(C)(C)C)cc1` returned an IC50 in experiment [1] of 700 nM. `CC(C)N(C[C@@H](O)c1ccc(Cl)c(Cl)c1)C(=O)Nc1ccc(NC(=O)C(C)(C)C)cc1` yielded an IC50 in experiment [1] greater than 10000 nM.

Molecule `CC(C)N(C[C@@H](O)c1ccc(Cl)c(Cl)c1)C(=O)Nc1ccc(NC(=O)c2ccc(F)cc2F)cc1` came in with a 50% inhibitory concentration (IC50) in experiment [1] greater than 10000 nM. On the same count and under the same terms, for `CC(C)(C)C(=O)NCc1ccc(NC(=O)N2CCC[C@@H]2[C@@H](O)c2ccc(Cl)c(Cl)c2)cc1` the value was greater than 10000 nM.

In turn, `CC(C)C[C@H](NC(=O)[C@H](Cc1ccc(NC(=N)N)cc1)NC(=O)[C@H](Cc1ccc(F)cc1)NC(=O)/C=C/c1ccccc1)C(=O)N[C@@H](CCCN=C(N)N)C(=O)N[C@@H](CCCN)C(N)=O` (X1-[Phe(4-F)][Phe(4-guanidino)]LR[Orn]-NH2) came in with an IC50 in experiment [1] of 54 nM. The same measure, in the same setting: for `CCCN(C[C@@H](O)c1ccc(Cl)c(Cl)c1)C(=O)Nc1ccc(CNC(=O)C(C)(C)C)cc1` the value was 1100 nM; for `C[C@@H]1CC[C@@H]([C@@H](O)c2ccc(Cl)c(Cl)c2)N1C(=O)Nc1ccc(CNC(=O)C(C)(C)C)cc1`, greater than 10000 nM; for `CC(C)(C)C(=O)NCc1ccc(NC(=O)N2CCC(O)(c3ccc(Cl)c(Cl)c3)C2)cc1` (stereo not given), greater than 40000 nM.

Take `C[C@H]1CC[C@@H]([C@@H](O)c2ccc(Cl)c(Cl)c2)N1C(=O)Nc1ccc(CNC(=O)C(C)(C)C)cc1`: the IC50 in experiment [1] came out at 400 nM; in experiment [2], 1000 nM. For `CC(C)(C)C(=O)NCc1ccc(NC(=O)NC[C@@H](O)c2ccc(Cl)c(Cl)c2)cc1`, in experiment [1], the IC50 was greater than 40000 nM.

As to `CC(C)(C)C(=O)NCc1ccc(NC(=O)N(CC(O)c2cc(Cl)cc(Cl)c2)C2CCC2)cc1` (stereo not given), the IC50 in experiment [1] was greater than 10000 nM. The molecule `CC(C)N(C[C@@H](O)c1ccc(Cl)c(Cl)c1)C(=O)Nc1ccc(CCNC(=O)c2cccc3[nH]cnc23)cc1` showed an IC50 in experiment [1] of 360 nM. Same read-out and setting: for `CCCC(C)N(C[C@@H](O)c1ccc(Cl)c(Cl)c1)C(=O)Nc1ccc(CNC(=O)C(C)(C)C)cc1` (stereo not given in full) the value was 1000 nM.

Consider `CC(C)(C)C(=O)NCc1ccc(NC(=O)N(CC(O)c2cccc(Cl)c2Cl)C2CCC2)cc1` (stereo not given), for which the half-maximal inhibitory concentration (IC50) in experiment [1] is greater than 10000 nM. For the molecule `CC(C)(C)C(=O)NCc1ccc(NC(=O)N(CC(O)c2ccc(Br)c(Br)c2)C2CCC2)cc1` (stereo not given), in experiment [1], inhibition was half-maximal at 1000 nM (IC50). Still for that read-out and setting: with `CC(C)N(C[C@@H](O)c1ccc(Cl)c(Cl)c1)C(=O)Nc1ccc(CNC(=O)c2ccc(F)cc2F)cc1` the figure was 900 nM; with `CCN(C[C@@H](O)c1ccc(Cl)c(Cl)c1)C(=O)Nc1ccc(CNC(=O)C(C)(C)C)cc1`, 3800 nM. `CC(C)(C)C(=O)NCc1ccc(NC(=O)N2CCCC[C@H]2[C@@H](O)c2ccc(Cl)c(Cl)c2)cc1` gave an IC50 in experiment [1] of 4300 nM. The same measure, in the same setting: for `CC(C)(C)C(=O)NCc1ccc(NC(=O)N2C[S+]([O-])C[C@@H]2[C@@H](O)c2ccc(Cl)c(Cl)c2)cc1` (stereo not given in full) the value was greater than 10000 nM; for `CC(C)(C)C(=O)NCc1ccc(NC(=O)N(C[C@@H](O)c2ccc(Cl)c(Cl)c2)c2ccccc2)cc1`, greater than 10000 nM.

`CC(C)(C)C(=O)NCc1ccc(NC(=O)N2CCC[C@H]2[C@@H](O)c2ccc(Cl)c(Cl)c2)cc1`: the IC50 in experiment [1] was 1500 nM; in experiment [2], 1100 nM. As to `CC(C)(C)C(=O)NCc1ccc(NC(=O)N(CC(O)c2cccc(C#N)c2)C2CCC2)cc1` (stereo not given), in experiment [1], the IC50 was greater than 10000 nM. Turning to `CC(C)N(C[C@@H](O)c1ccc(Cl)c(Cl)c1)C(=O)Nc1ccc(CCNC(=O)c2cccnc2)cc1`, the midpoint of inhibition in experiment [1], the IC50, lay at 1400 nM. The same measure, in the same setting: for `CC(C)(C)C(=O)NCc1ccc(NC(=O)N(CC(O)c2ccc(Cl)cc2Cl)C2CCC2)cc1` (stereo not given) the value was 10000 nM; for `CC[C@H](C)N(C[C@@H](O)c1ccc(Cl)c(Cl)c1)C(=O)Nc1ccc(CNC(=O)C(C)(C)C)cc1`, 400 nM; for `CC(C)N(C[C@@H](O)c1ccc(Cl)c(Cl)c1)C(=O)Nc1ccc(NC(=O)c2ccc(S(N)(=O)=O)cc2)cc1`, 1000 nM.

On to `CC[C@@H](C)N(C[C@@H](O)c1ccc(Cl)c(Cl)c1)C(=O)Nc1ccc(CNC(=O)C(C)(C)C)cc1`, for which the IC50 in experiment [1] is 230 nM; in experiment [2] it was 120 nM; in experiment [3] it was greater than 10000 nM. The molecule also registered an inhibitory constant (Ki) in experiment [4] greater than 10000 nM. For `CC(C)N(C[C@@H](O)c1ccc(Cl)c(Cl)c1)C(=O)Nc1ccc(CNC(=O)c2cccnc2)cc1`, in experiment [1], the IC50 came to 700 nM. The molecule `CC(C)N(C[C@@H](O)c1ccc(Cl)c(Cl)c1)C(=O)Nc1ccc(NC(=O)c2cccc3[nH]cnc23)cc1` had an IC50 in experiment [1] of 1000 nM.

On to `CC(C)(C)C(=O)NCc1ccc(NC(=O)N(C[C@@H](O)c2ccc(Cl)c(Cl)c2)C2CC2)cc1`, for which the values for the IC50 in experiment [1] and in experiment [2] were 6700 nM and 2100 nM, respectively.

In general, IC50 refers to the point on the concentration scale where inhibition reaches its midpoint. Read a high IC50 as weaker potency in that assay. What is called Ki is a dissociation constant, usually derived from enzyme kinetics or from competition with a known ligand. The low end stands for tighter binding, the high end for weaker binding.
